Reference: patent US20120220577A1, “GLYCINE B ANTAGONISTS” (Merz Pharma GmbH & Co KgaA, priority 2009, published 2012)

Key:
[1] = molecular target: T1, glycine binding pocket of the NMDA receptor (Rattus norvegicus, UniProt P35439); test: [3H]MDL-105,519 displacement studies (rat cortical membranes); settings: displacement of 2 nM [3H]-MDL-105,519, rat cortical membranes; read-out: NMDA-MDL 105519-r-CTX - IC50
T1 construct: For isolation of the cell membranes, the cortices are homogenized; from tissue; host or cells: rat cerebral cortex membranes (male Sprague-Dawley)

[2] = molecular target: T2, NMDA receptor glycine B site (Rattus norvegicus, UniProt P35439); test: Whole cell patch-clamp recordings, rat hippocampal neurons (NMDA/D-Serine currents); assay type: cell-based; settings: NMDA 200 μM + D-Serine 1 μM, -70 mV, read-out: NMDA-PC-r-HIC-NAM - IC50
Protocol: (§1) Antagonistic potencies of the test compounds are functionally evaluated using electrophysiological whole cell patch-clamp recordings and/or fluorometric intracellular Ca^2+-imaging (FLIPR) screens.
Cell preparation is performed as described by Parsons, et al. (Neuropharmacology, 1998, 37(6), 719-727). The female Sprague-Dawley rat is anaesthetised by placing in a saturated CO2-euthanasia chamber under further quiet CO2-influx. Under these conditions the rat loses consciousness after a few seconds and is then sacrificed by cervical dislocation. After opening the abdominal cavity, embryos (E20) are removed and stored in ice cold Ca^2+- and Mg^2+-free Hank's Buffered Salt Solution (pH 7.3), containing 4 g/l glucose (HBSS-CMF). Hippocampi are then isolated from the brains of at least 8 embryos after decapitation, transferred into ice cold HBSS-CMF and washed 3 to 4 times.
Hippocampi are pre-incubated for 8 min with a 0.66% trypsin (Sigma-Aldrich) and 0.1% (20 U/ml) DNAase solution (Sigma-Aldrich) in Ca^2+-free Phosphate Buffered Saline (PBS-CF) and washed 3 times with HBSS-CMF. Cells are then mechanically dissociated by trituration in a PBS-CF solution containing 0.05% (10 U/ml) DNAase and 0.3% of the trypsin inhibitor ovomucoid (all from Sigma-Aldrich). The cells are then centrifuged at 180×g for 10 minutes, and the cell pellet re-suspended in basal Minimum essential medium (MEM, Invitrogen, Karlsruhe, Germany), again carefully triturated to ensure maximal dissociation and finally plated in the flexiPERM inserts (Thermo Fisher Scientific, Langenselbold, Germany) at a density of 15×10^3 cells/cm^2 (0.5 ml/insert) onto poly-DL-ornithine (Sigma) and mouse laminin (Invitrogen) pre-coated plastic petri dishes. After 1 hour the cells become attached to the bottom of the dish and the inserts may be removed. The cells are then nourished with 2 ml MEM supplemented with 5% foetal calf serum (FCS) and 5% horse serum and incubated at 37° C. with 95% air and 5% CO2 at 95% humidity. After 4 days in vitro (DIV) further glial mitosis is inhibited by adding 10 μl of AraC (5 μM endconcentration). The medium is completely exchanged after an additional 2 DIV and again, but only partly (50%), after 8 DIV. The cells are used for electrophysiological recordings after 11-15 DIV.
Cells are visualised using an inverted microscope and selected for patching based upon their position and morphology. Voltage clamp recordings are made in the whole cell configuration of the patch clamp technique at a holding potential of −70 mV with the aid of an EPC-10 amplifier in combination with pipette manipulator. Patch clamp pipettes are pulled from borosilicate glass using a horizontal puller (P-97 Puller, Sutter Instruments, USA) and, when filled with intracellular solution, have resistances of 1-4 MΩ.
Solutions are delivered via a home-made gravity driven very fast perfusion system (<10 ms) including valves to switch flow on and off in combination with a stepper motor-driven double-barrelled theta glass application pipette in order to expose cells to either agonist-free or agonist-containing solutions in presence or absence of antagonist.
The intracellular solution used consists of: 120 mM CsCl, 10 mM EGTA, 1 mM MgCl2, 200 μM CaCl2, 10 mM glucose and 22 mM tetraethyl ammonium chloride (TEA-CL). The corresponding extracellular bath solution contains: 140 mM NaCl, 3 mM KCl, 10 mM glucose, 10 mM HEPES, 1.5 mM CaCl2 and 4.5 mM sucrose (all from Sigma-Aldrich) pH 7.3, and is supplemented with 0.3 μM tetrodotoxin (TTX, Tocris, Bristol, U.K.) to block voltage-activated sodium channels and 0.25 μM bicuculline (Sigma-Aldrich) to block GABAA receptors. […]

[3] = molecular target: T2, NMDA receptor glycine B site; test: Calcium FLIPR studies, rat cortical neurons (NMDA/D-Serine induced intracellular calcium); assay type: cell-based; set-up: Primary neurons are prepared from cortices of embryonal rats at day 17 of pregnancy; endogenous in cells; host or cells: primary rat cortical neurons (E17, 11-13 DIV); settings: rat cortical neurons; stimulation with 30 μM NMDA and 1 μM D-Serine; antagonist pre-incubated 10 min; read-out: NMDA-FLIPR-rCTX-NAM - IC50
Protocol: as §1
Sprague-Dawley rat embryos (E 17) are decapitated and neocortices are dissected, trypsinized and carefully triturated. The cell suspension is plated on poly-D-lysine pre-coated 96-well Plates (Greiner, Frickenhausen, Germany) at a cell density of 55.000 cells/well. The neurons are cultivated in Neurobasal media containing B27-Supplement and […] L-Glutamine (Biochrom) at 37° C. in a humidified atmosphere of 5% CO2/95% air. Medium is exchanged completely at day 4 and to 50% on day 7. At the time of experiments neurons are 11-13 days in vitro.
The increase of intracellular calcium after stimulation with 30 μM NMDA and 1 μM D-Serine is measured using the fluorometric imaging plate reader (FLIPR) and the Calcium-4-Kit (both Molecular Devices, Ismaning, Germany). Prior to addition of agonist or antagonist (5 different concentrations, n=5) the medium is aspirated and cells are washed once before loading with 150 μL of loading buffer (1 h at room temperature), consisting of Ca-4 sensitive dye reconstituted in extracellular bath solution, pH 7.3. Subsequently, plates are transferred to FLIPR to detect increases in intracellular calcium after the addition of agonist, measured as relative fluorescence units (RFU). Antagonists are pre-incubated with the cells for 10 min at room temperature before the addition of the agonist and co-agonist.
The fluorescence signal increase after addition of agonist reflects the increase of intracellular calcium. Inconsistencies in the amount of cells per well are normalised by using the spatial uniformity correction of the FLIPR software (Screenworks, Molecular Devices). The mean of replicated temporal data (n=5) is calculated and used for graphical representation. For the evaluation of the antagonistic potency, the calcium changes in response to different concentrations of antagonist are determined using an area under the curve (AUC) calculation. All responses (RFU-values) are determined as percentage of control (=maximum response at 30 μM NMDA and 1 μM D-Serine). IC50 values are calculated according the four parameter logistic equation using GraFit (Erithacus Software).

SMILES | IC50 [1] | IC50 [2] | melting point | IC50 [3]
O=C(COc1cc(C(=O)O)cc2cc(Cl)cc(Cl)c12)Nc1ccc(O)cc1 [Example 8, 5,7-Dichloro-4-[(4-hydroxyphenylcarbamoyl)-methoxy]-naphthalene-2-carboxylic acid] | 1850 nM | 287 nM |  | 
O=C(COc1cc(C(=O)O)cc2cc(Cl)cc(Cl)c12)Nc1cccc(OCC(=O)N2CCOCC2)c1 [Example 47, 5,7-Dichloro-4-{[3-(2-morpholin-4-yl-2-oxo-ethoxy)-phenylcarbamoyl]-methoxy}-naphthalene-2-carboxylic acid] | 218 nM | 87 nM |  | 
O=C(O)COc1ccc(CO)cc1NC(=O)COc1cc(C(=O)O)cc2cc(Cl)cc(Cl)c12 [Example 94, 4-[(2-Carboxymethoxy-5-hydroxymethyl-phenylcarbamoyl)-methoxy]-5,7-dichloro-naphthalene-2-carboxylic acid] | 150 nM |  | 185 to 187 °C (dec.) | 1050 nM
O=C(O)CCc1cccc(NC(=O)COc2cc(C(=O)O)cc3cc(Cl)cc(Cl)c23)c1 [Example 96, 4-{[3-(2-Carboxy-ethyl)-phenylcarbamoyl]-methoxy}-5,7-dichloro-naphthalene-2-carboxylic acid] | 393 nM |  | > 230 °C (dec.) | 5820 nM
NC(=O)c1cccc(NC(=O)COc2cc(C(=O)O)cc3cc(Cl)cc(Cl)c23)c1 [Example 113, 4-[(3-Carbamoyl-phenylcarbamoyl)-methoxy]-5,7-dichloro-naphthalene-2-carboxylic acid] | 284 nM |  | > 250 °C | 
O=C(COc1cc(C(=O)O)cc2cc(Cl)cc(Cl)c12)Nc1cccc(OCc2nnn[nH]2)c1OCc1nnn[nH]1 [Example 128, 4-{[2,3-Bis-(1H-tetrazol-5-ylmethoxy)-phenylcarbamoyl]-methoxy}-5,7-dichloro-naphthalene-2-carboxylic acid] | 1370 nM |  | 246 to 247 °C | 
Cc1nc(NC(=O)COc2cc(C(=O)O)cc3cc(Cl)cc(Cl)c23)sc1C [Example 135, 5,7-Dichloro-4-[(4,5-dimethyl-thiazol-2-ylcarbamoyl)-methoxy]-naphthalene-2-carboxylic acid] |  |  | > 250 °C | 
NC(=O)c1[nH]cnc1NC(=O)COc1cc(C(=O)O)cc2cc(Cl)cc(Cl)c12 [Example 136, 4-[(5-Carbamoyl-1H-imidazol-4-ylcarbamoyl)-methoxy]-5,7-dichloro-naphthalene-2-carboxylic acid] |  |  | > 250 °C | 
N#CCc1ccccc1NC(=O)COc1cc(C(=O)O)cc2cc(Cl)cc(Cl)c12 [Example 137, 5,7-Dichloro-4-[(2-cyanomethyl-phenylcarbamoyl)-methoxy]-naphthalene-2-carboxylic acid] |  |  | 246 to 247 °C | 

The remaining molecules from weak to strong by IC50 [1], led by results:

IC50 [1] | IC50 [2] | melting point | IC50 [3] | SMILES
440 nM |  | > 250 °C |  | N#Cc1ccccc1NC(=O)COc1cc(C(=O)O)cc2cc(Cl)cc(Cl)c12 [Example 82, 5,7-Dichloro-4-[(2-cyano-phenylcarbamoyl)-methoxy]-naphthalene-2-carboxylic acid]
430 nM |  | > 240 °C (dec.) | 8550 nM | O=C(COc1cc(C(=O)O)cc2cc(Cl)cc(Cl)c12)NCc1ccccn1 [Example 103, 5,7-Dichloro-4-{[(pyridin-2-ylmethyl)-carbamoyl]-methoxy}-naphthalene-2-carboxylic acid]
252 nM |  | > 220 °C (dec.) | 1320 nM | O=C(O)COc1ccc(NC(=O)COc2cc(C(=O)O)cc3cc(Cl)cc(Cl)c23)c(OCC(=O)O)c1 [Example 83, 4-[(2,4-Bis-carboxymethoxy-phenylcarbamoyl)-methoxy]-5,7-dichloro-naphthalene-2-carboxylic acid]
233 nM |  | 247 to 248 °C | 930 nM | O=C(COc1cc(C(=O)O)cc2cc(Cl)cc(Cl)c12)Nc1ccccc1-c1nnn[nH]1 [Example 85, 5,7-Dichloro-4-{[2-(1H-tetrazol-5-yl)-phenylcarbamoyl]-methoxy}-naphthalene-2-carboxylic acid]
